Laboratory results from US8143288B2, “Inhibitors of HCV replication” (priority 2005, dated 2012).

What follows are molecules tested on HCV 1b-377-neo replicon cells (assay: HCV replicon FRET assay). Conditions: Hepatitis C virus; HCV replicon; read-out: Activity (EC50).
Type: cell-based
From the text: The HCV replicon cell line was isolated from colonies as described by Lohman, et. al. (Science 1999, 285, 110-113, expressly incorporated by reference in its entirety) and used for all experiments. The HCV replicon has the nucleic acid sequence set forth in EMBL Accession No.: AJ242652, the coding sequence of which is from nt 1801 to 7758.
The coding sequence of the published HCV replicon was synthesized by Operon Technologies, Inc. (Alameda, Calif.), and the fall-length replicon was then assembled in plasmid pGem9zf(+) (Promega, Madison, Wis.) using standard molecular biology techniques. The replicon consists of (i) the HCV 5′ UTR fused to the first 12 amino acids of the capsid protein, (ii) the neomycin phosphotransferase gene (neo), (iii) the IRES from encephalomyocarditis virus (EMCV), and (iv) HCV NS3 to NS5B genes and the HCV 3′ UTR. Plasmid DNAs were linearized with ScaI and RNA transcripts were synthesized in vitro using the T7 MegaScript transcription kit (Ambion, Austin, Tex.) according to manufacturer's directions.
To generate cell lines, 4×10^6 Huh-7 cells (kindly provided by R. Bartenschlager and available from Health Science Research Resources Bank, Japan Health Sciences Foundation) were electroporated (GenePulser System, Bio-Rad) with 10 micrograms(“μg”) of RNA transcript and plated into 100-mm dishes. After 24 hours, selective media containing 1.0 milligrams/milliliter (“mg/mL”) G418 was added and media was changed every 3 to 5 days. […] These cell lines were maintained at 37° C., 5% CO2, 100% relative humidity in DMEM (Cat#11965-084) Gibco-BRL, Rockville, Md., with 10% heat inactivated calf serum (Sigma), 10 mL of 100× penicillin/streptomycin (Cat#15140-122) Gibco-BRL, Rockville, Md., Geneticin (Cat#10131-027) Gibco-BRL, Rockville, Md. at 1 mg/mL. One of the cell lines (deposited as ATCC Accession No. PTA-4583 in the American Type Culture Collection) which had approximately 3,000 copies of HCV replicon RNA/cell was used for development of the assay (HCV 1b-377-neo replicon cells).
To perform the HCV FRET screening assay, 96-well cell culture plates were used. The FRET peptide (Anaspec, Inc., San Jose, Calif.) (Taliani et al., Anal. Biochem. 1996, 240, 60-67, hereby incorporated by reference in its entirety) contains a fluorescence donor, EDANS, near one end of the peptide and an acceptor, DABCYL, near the other end. The fluorescence of the peptide is quenched by […] resonance energy transfer (RET) between the donor and the acceptor, but as the NS3 protease cleaves the peptide the products are released from RET quenching and the fluorescence of the donor becomes apparent.
The assay reagent was made as follows: 5X luciferase cell culture lysis (Cat#E153A, Promega, Madison, Wis.) diluted to 1X with dH2O, NaCl added to […] final, the FRET peptide diluted to 20 micromolar (“μM”) final from a 2 mM stock. HCV 1b-377-neo replicon cells were trypsinized, placed into each well of a 96-well plate and allowed to attach overnight. The next day, the test compounds were added to columns 1 through 10; column 11 was media plus DMSO only, and column 12 contained a titration of interferon or an HCV specific inhibitor as a control (1000 units for A12, B12, 100 units for C12, D12, 10 units for E12, F12 and 1 unit for G12, H12). […] In addition, naïve Huh-7 cells could also be used to replace wells A12 and B12 as a background control.
At subsequent various times (typically 72 hours), 10% final volume Alamar blue (Cat#00-100, Trek Diagnostics, Cleveland, Ohio) was added to each well. The plates were returned to the incubator for 5 hours and then read in the Cytoflour (PE Biosystems) to determine Alamar blue conversion in each well as a measure of cellular toxicity.

| SMILES | EC50 [nM] |
| --- | --- |
| O=C(Nc1ccc(/C=C/c2ccc(NC(=O)[C@@H]3CCCN3C(=O)OCc3ccccc3)cc2)cc1)[C@@H]1CCCN1C(=O)OCc1ccccc1 [Example 2] | 0.1 to 90 |
| O=C(Nc1ccc(/C=C/c2ccc(NC(=O)[C@@H]3C[C@@H](O)CN3C(=O)OCc3ccccc3)cc2)cc1)[C@@H]1C[C@@H](O)CN1C(=O)OCc1ccccc1 [Example 4] | 0.1 to 90 |
| O=C(Nc1ccc(/C=C\c2ccc(NC(=O)[C@@H]3CCCN3C(=O)Cc3ccccc3)cc2)cc1)[C@@H]1CCCN1C(=O)Cc1ccccc1 [Example 5] | 0.1 to 90 |
| O=C(Nc1ccc(/C=C\c2ccc(NC(=O)[C@@H]3CCCN3C(=O)OCc3ccccc3)cc2)cc1)[C@@H]1CCCN1C(=O)OCc1ccccc1 [Example 6] | 0.1 to 90 |
| O=C(Nc1ccc(/C=C/c2ccc(NC(=O)[C@@H]3C[C@H](O)CN3C(=O)OCc3ccccc3)cc2)cc1)[C@@H]1C[C@H](O)CN1C(=O)OCc1ccccc1 [Example 7] | 0.1 to 90 |
| O=C(Nc1ccc(/C=C\c2ccc(NC(=O)[C@@H]3C[C@@H](O)CN3C(=O)OCc3ccccc3)cc2)cc1)[C@@H]1C[C@@H](O)CN1C(=O)OCc1ccccc1 [Example 8] | 100 to 1000 |
| O=C(Nc1ccc(/C=C/c2ccc(NC(=O)[C@@H]3CCCCN3C(=O)OCc3ccccc3)cc2)cc1)[C@@H]1CCCCN1C(=O)OCc1ccccc1 [Example 9] | 0.1 to 90 |
| O=C(Nc1ccc(/C=C/c2ccc(NC(=O)[C@@H]3Cc4ccccc4CN3C(=O)OCc3ccccc3)cc2)cc1)[C@@H]1Cc2ccccc2CN1C(=O)OCc1ccccc1 [Example 10] | 1000 to 10000 |
| O=C(Nc1ccc(/C=C/c2ccc(NC(=O)[C@@H]3COCN3C(=O)OCc3ccccc3)cc2)cc1)[C@@H]1COCN1C(=O)OCc1ccccc1 [Example 11] | 1000 to 10000 |
| O=C(Nc1ccc(/C=C/c2ccc(NC(=O)C3CC(=O)N(Cc4ccc(Cl)cc4)C3)cc2)cc1)C1CC(=O)N(Cc2ccc(Cl)cc2)C1 (stereo not shown) [Example 12] | 1000 to 10000 |
| O=C(Nc1ccc(/C=C/c2ccc(NC(=O)C3CC(=O)N(Cc4cccs4)C3)cc2)cc1)C1CC(=O)N(Cc2cccs2)C1 (stereo not shown) [Example 13] | 1000 to 10000 |
| O=C(Nc1ccc(/C=C/c2ccc(NC(=O)C3CC(=O)N(CCc4cccs4)C3)cc2)cc1)C1CC(=O)N(CCc2cccs2)C1 (stereo not shown) [Example 14] | 1000 to 10000 |
| CO[C@@H]1C[C@@H](C(=O)Nc2ccc(/C=C/c3ccc(NC(=O)[C@@H]4C[C@H](OC)CN4C(=O)OCc4ccccc4)cc3)cc2)N(C(=O)OCc2ccccc2)C1 [Example 15] | 0.1 to 90 |
| CCO[C@@H]1C[C@@H](C(=O)Nc2ccc(/C=C/c3ccc(NC(=O)[C@@H]4C[C@H](OCC)CN4C(=O)OCc4ccccc4)cc3)cc2)N(C(=O)OCc2ccccc2)C1 [Example 16] | 1000 to 10000 |
| CO[C@H]1C[C@@H](C(=O)Nc2ccc(/C=C/c3ccc(NC(=O)[C@@H]4C[C@H](OC)CN4C(=O)OCc4ccccc4)cc3)cc2)N(C(=O)OCc2ccccc2)C1 [Example 17] | 1000 to 10000 |
| CCO[C@H]1C[C@@H](C(=O)Nc2ccc(/C=C/c3ccc(NC(=O)[C@@H]4C[C@H](OCC)CN4C(=O)OCc4ccccc4)cc3)cc2)N(C(=O)OCc2ccccc2)C1 [Example 18] | 1000 to 10000 |
| O=C(Nc1ccc(/C=C/c2ccc(NC(=O)[C@@H]3Cc4ccccc4N3C(=O)OCc3ccccc3)cc2)cc1)[C@@H]1Cc2ccccc2N1C(=O)OCc1ccccc1 [Example 19] | 0.1 to 90 |
| CC(C)(C)OC(=O)N1c2ccccc2C[C@H]1C(=O)Nc1ccc(/C=C/c2ccc(NC(=O)[C@@H]3Cc4ccccc4N3C(=O)OC(C)(C)C)cc2)cc1 [Example 20] | 100 to 1000 |
| CC(C)(C)OC(=O)N1CCC[C@H]1C(=O)Nc1ccc(/C=C/c2ccc(NC(=O)[C@@H]3CCCN3C(=O)OC(C)(C)C)cc2)cc1 [Example 21] | 100 to 1000 |
| CC(C)(C)OC(=O)N1CCC[C@H]1C(=O)Nc1ccc(/C=C/c2ccc(NC(=O)[C@@H]3CCCN3)cc2)cc1 [Example 22] | 1000 to 10000 |

| SMILES | EC50 [nM] |
| --- | --- |
| COc1cccc(CC(=O)N2CCC[C@H]2C(=O)Nc2ccc(/C=C/c3ccc(NC(=O)[C@@H]4CCCN4C(=O)Cc4cccc(OC)c4)cc3)cc2)c1 [Example 25] | 100 to 1000 |
| O=C(Nc1ccc(/C=C/c2ccc(NC(=O)[C@@H]3CCCN3C(=O)CC3CC3)cc2)cc1)[C@@H]1CCCN1C(=O)CC1CC1 [Example 26] | 0.1 to 90 |
| COCCOCC(=O)N1CCC[C@H]1C(=O)Nc1ccc(/C=C/c2ccc(NC(=O)[C@@H]3CCCN3C(=O)COCCOC)cc2)cc1 [Example 27] | 100 to 1000 |
| CN(C)CC(=O)N1CCC[C@H]1C(=O)Nc1ccc(/C=C/c2ccc(NC(=O)[C@@H]3CCCN3C(=O)CN(C)C)cc2)cc1 [Example 28] | 100 to 1000 |
| CC(Oc1cccc(Cl)c1)C(=O)N1CCC[C@H]1C(=O)Nc1ccc(/C=C/c2ccc(NC(=O)[C@@H]3CCCN3C(=O)C(C)Oc3cccc(Cl)c3)cc2)cc1 (stereo partly shown) [Example 29] | 100 to 1000 |
| O=C(O)CCC(=O)N1CCC[C@H]1C(=O)Nc1ccc(/C=C/c2ccc(NC(=O)[C@@H]3CCCN3C(=O)CCC(=O)O)cc2)cc1 [Example 30] | 100 to 1000 |
| O=C(Nc1ccc(/C=C/c2ccc(NC(=O)[C@@H]3CCCN3C(=O)C3CC3)cc2)cc1)[C@@H]1CCCN1C(=O)C1CC1 [Example 31] | 0.1 to 90 |
| COc1cccc(C(=O)N2CCC[C@H]2C(=O)Nc2ccc(/C=C/c3ccc(NC(=O)[C@@H]4CCCN4C(=O)c4cccc(OC)c4)cc3)cc2)c1 [Example 32] | 0.1 to 90 |
| COc1cccc(CCC(=O)N2CCC[C@H]2C(=O)Nc2ccc(/C=C/c3ccc(NC(=O)[C@@H]4CCCN4C(=O)CCc4cccc(OC)c4)cc3)cc2)c1 [Example 33] | 100 to 1000 |
| COc1ccc2[nH]c(C)c(CC(=O)N3CCC[C@H]3C(=O)Nc3ccc(/C=C/c4ccc(NC(=O)[C@@H]5CCCN5C(=O)Cc5c(C)[nH]c6ccc(OC)cc56)cc4)cc3)c2c1 [Example 34] | 0.1 to 90 |
| COc1ccc2[nH]cc(CC(=O)N3CCC[C@H]3C(=O)Nc3ccc(/C=C/c4ccc(NC(=O)[C@@H]5CCCN5C(=O)Cc5c[nH]c6ccc(OC)cc56)cc4)cc3)c2c1 [Example 35] | 0.1 to 90 |
| Cc1cc(CC(=O)N2CCC[C@H]2C(=O)Nc2ccc(/C=C/c3ccc(NC(=O)[C@@H]4CCCN4C(=O)Cc4cc(C)no4)cc3)cc2)on1 [Example 36] | 0.1 to 90 |
| O=C(Nc1ccc(/C=C/c2ccc(NC(=O)[C@@H]3CCCN3C(=O)COc3cccc(Cl)c3)cc2)cc1)[C@@H]1CCCN1C(=O)COc1cccc(Cl)c1 [Example 38] | 100 to 1000 |
| CC(C)C(=O)N1CCC[C@H]1C(=O)Nc1ccc(/C=C/c2ccc(NC(=O)[C@@H]3CCCN3C(=O)C(C)C)cc2)cc1 [Example 39] | 100 to 1000 |
| CC(C)CC(=O)N1CCC[C@H]1C(=O)Nc1ccc(/C=C/c2ccc(NC(=O)[C@@H]3CCCN3C(=O)CC(C)C)cc2)cc1 [Example 40] | 100 to 1000 |
| Cn1cnc(CC(=O)N2CCC[C@H]2C(=O)Nc2ccc(/C=C/c3ccc(NC(=O)[C@@H]4CCCN4C(=O)Cc4cn(C)cn4)cc3)cc2)c1 [Example 41] | 0.1 to 90 |
| O=C(Nc1ccc(/C=C/c2ccc(NC(=O)[C@@H]3CCCN3C(=O)Cc3c[nH]cn3)cc2)cc1)[C@@H]1CCCN1C(=O)Cc1c[nH]cn1 [Example 42] | 1000 to 10000 |
| O=C(Nc1ccc(/C=C/c2ccc(NC(=O)[C@@H]3CCCN3C(=O)Cc3ccncc3)cc2)cc1)[C@@H]1CCCN1C(=O)Cc1ccncc1 [Example 43] | 100 to 1000 |
| O=C(Nc1ccc(/C=C/c2ccc(NC(=O)[C@@H]3CCCN3C(=O)C3CCC3)cc2)cc1)[C@@H]1CCCN1C(=O)C1CCC1 [Example 44] | 0.1 to 90 |
| CCC(=O)N1CCC[C@H]1C(=O)Nc1ccc(/C=C/c2ccc(NC(=O)[C@@H]3CCCN3C(=O)CC)cc2)cc1 [Example 46] | 100 to 1000 |
